Series [1] concerns the target serotonin reuptake (5-HT) (Homo sapiens, UniProt P31645). Briefly: serotonin reuptake inhibition. It is filed as biochemical. The settings on record: fraction of the potency towards NE reuptake.
In another series the target is dopamine reuptake (DA) (Homo sapiens, UniProt Q01959). Briefly: dopamine reuptake inhibition. The settings on record: fraction of the potency towards NE reuptake. The series is classed as biochemical.
For series [2], the target named is T1, monoamine oxidase A (MAO A) (Homo sapiens, UniProt P21397).
T1 sequence (P21397 1-527): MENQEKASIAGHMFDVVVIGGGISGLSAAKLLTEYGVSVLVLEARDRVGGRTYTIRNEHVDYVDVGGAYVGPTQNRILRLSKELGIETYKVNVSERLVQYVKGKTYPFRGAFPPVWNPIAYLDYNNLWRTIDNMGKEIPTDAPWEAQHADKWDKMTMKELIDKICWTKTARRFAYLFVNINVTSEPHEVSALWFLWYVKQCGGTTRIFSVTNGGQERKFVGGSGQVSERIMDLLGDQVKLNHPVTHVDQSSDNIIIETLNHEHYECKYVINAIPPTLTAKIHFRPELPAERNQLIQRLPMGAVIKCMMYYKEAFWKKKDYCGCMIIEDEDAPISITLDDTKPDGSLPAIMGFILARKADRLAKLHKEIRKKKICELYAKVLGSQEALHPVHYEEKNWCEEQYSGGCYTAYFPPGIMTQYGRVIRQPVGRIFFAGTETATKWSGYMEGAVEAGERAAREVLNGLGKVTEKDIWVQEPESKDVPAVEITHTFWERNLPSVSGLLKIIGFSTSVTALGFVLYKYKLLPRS
Briefly: metabolic pathway.

The target of series [3] is norepinephrine reuptake (NE) (Homo sapiens, UniProt P23975). Briefly: norepinephrine reuptake inhibition. As to conditions: unbalanced triple reuptake inhibitor. It is filed as biochemical.
Chain of norepinephrine reuptake (NE) (P23975 whole entry): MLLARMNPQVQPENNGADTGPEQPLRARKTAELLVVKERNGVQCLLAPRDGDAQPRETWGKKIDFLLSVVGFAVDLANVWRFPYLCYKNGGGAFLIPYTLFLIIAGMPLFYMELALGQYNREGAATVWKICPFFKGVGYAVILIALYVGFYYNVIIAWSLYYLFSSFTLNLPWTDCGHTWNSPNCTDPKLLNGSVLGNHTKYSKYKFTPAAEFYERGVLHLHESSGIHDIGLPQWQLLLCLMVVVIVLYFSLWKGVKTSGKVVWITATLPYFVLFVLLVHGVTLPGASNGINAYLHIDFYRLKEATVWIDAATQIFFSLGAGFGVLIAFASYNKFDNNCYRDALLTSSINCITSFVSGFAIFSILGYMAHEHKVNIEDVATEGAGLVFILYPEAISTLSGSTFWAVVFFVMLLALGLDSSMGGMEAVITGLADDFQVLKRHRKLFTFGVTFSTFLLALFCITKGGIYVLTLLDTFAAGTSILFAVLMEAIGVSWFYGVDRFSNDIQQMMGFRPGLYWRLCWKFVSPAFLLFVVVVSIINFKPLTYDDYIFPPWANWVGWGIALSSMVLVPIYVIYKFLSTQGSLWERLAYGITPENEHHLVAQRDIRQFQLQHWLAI

Chain of serotonin reuptake (5-HT) (P31645 whole entry): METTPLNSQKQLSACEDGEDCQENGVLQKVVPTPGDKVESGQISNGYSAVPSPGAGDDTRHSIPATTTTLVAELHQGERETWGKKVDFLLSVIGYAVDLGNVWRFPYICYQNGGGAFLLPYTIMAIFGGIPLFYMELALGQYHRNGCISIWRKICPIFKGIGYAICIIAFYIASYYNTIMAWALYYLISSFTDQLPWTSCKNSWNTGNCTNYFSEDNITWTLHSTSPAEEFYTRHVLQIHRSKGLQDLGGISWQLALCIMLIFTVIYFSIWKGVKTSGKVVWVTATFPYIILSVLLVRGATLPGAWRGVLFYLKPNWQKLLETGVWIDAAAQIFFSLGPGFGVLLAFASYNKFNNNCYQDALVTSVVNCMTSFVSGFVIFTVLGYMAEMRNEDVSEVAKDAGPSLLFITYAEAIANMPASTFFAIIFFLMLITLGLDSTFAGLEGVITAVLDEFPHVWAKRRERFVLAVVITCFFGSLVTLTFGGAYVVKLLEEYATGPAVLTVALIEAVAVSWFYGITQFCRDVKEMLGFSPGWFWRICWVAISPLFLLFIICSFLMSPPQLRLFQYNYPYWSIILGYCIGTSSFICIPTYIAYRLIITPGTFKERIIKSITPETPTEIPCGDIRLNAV
Chain of dopamine reuptake (DA) (Q01959 whole entry): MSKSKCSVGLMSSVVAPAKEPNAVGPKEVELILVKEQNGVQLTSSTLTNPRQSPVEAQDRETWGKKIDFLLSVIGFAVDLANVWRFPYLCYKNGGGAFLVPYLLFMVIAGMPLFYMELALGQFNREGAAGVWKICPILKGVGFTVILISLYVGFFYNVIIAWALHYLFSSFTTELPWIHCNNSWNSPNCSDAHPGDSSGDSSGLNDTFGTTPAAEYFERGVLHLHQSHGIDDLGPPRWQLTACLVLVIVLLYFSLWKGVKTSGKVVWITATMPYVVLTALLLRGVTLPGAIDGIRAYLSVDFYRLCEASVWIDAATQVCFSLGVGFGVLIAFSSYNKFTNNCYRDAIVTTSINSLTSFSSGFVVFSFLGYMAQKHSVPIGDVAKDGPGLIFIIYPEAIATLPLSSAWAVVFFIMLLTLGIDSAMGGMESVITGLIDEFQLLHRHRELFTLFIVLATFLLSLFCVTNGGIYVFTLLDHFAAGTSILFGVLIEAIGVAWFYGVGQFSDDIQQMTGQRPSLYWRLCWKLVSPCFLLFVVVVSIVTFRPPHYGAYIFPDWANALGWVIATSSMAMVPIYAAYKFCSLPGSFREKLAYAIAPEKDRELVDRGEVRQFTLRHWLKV

Regarding `c1ccc2cc([C@]34CNC[C@H]3C4)ccc2c1` [(1R,5S)-1-(naphthalen-2-yl)-3-azabicyclo[3.1.0]hexane], the “potency towards serotonin reuptake relative to norepinephrine reuptake” value in series [1] is on record as “one-fourteenth”. Also, at dopamine reuptake (DA), the “potency towards dopamine reuptake relative to norepinephrine reuptake” value is on record as “one-sixth”. Moreover, in series [2], the primary metabolising enzyme entry is listed as “primarily metabolized by monoamine oxidase A (MAO A)”. Moreover, the “potency towards norepinephrine reuptake (relative rank among NE, DA, 5-HT)” value in series [3] is recorded as “most potency towards norepinephrine reuptake”.

(Values after US20180008575A1, “METHODS OF TREATING BINGE EATING DISORDER” (Neurovance, Inc., priority 2016, published 2018).)
